The values that follow come from patent US20130331442A1, “Combination Therapy for Cancer” (FINVECTOR VISION THERAPIES LTD, priority 2011, published 2013).

Data set [1] is described as follows: WBC and platelet counts in rats. Type of data set: in vivo, rat.
The next data set concerns rat glioma model. The conditions noted are these: TMZ therapy alone, in vivo experiments.
The test system of the next data set is BT4C cell line. Put plainly: in vitro cytotoxicity of TMZ on BT4C cell line. It counts as cell-based. The source says: However, both in vitro and in vivo experiments there were no effect with TMZ therapy alone, implicating that other mechanism of resistance are in operation.
The efficacy of TMZ is known to be affected by different DNA repair activities (Kaina, 2003; Kaina et al., 2007; Parkinson et al., 2008; Takagi et al., 2003; Takagi et al., 2008) and by the presence of functional p53 activity (Blough et al. (2010) J Neurooncol.).

Molecules are shown by their SMILES. Entries after “also recorded” stand apart in the source; their conditions may differ.

Method for rat glioma model: A study was conducted concerning tumour growth rate in a rat glioma model.

As for `Cn1nnc2c(C(N)=O)ncn2c1=O` [TMZ, Temozolomide], in data set [1], the WBC counts entry is on record as “profound adverse effect” and the platelet counts entry is “profound adverse effect”. In addition, the “effect of therapy in vivo” value in the data set on rat glioma model was “no effect”. Moreover, the cytotoxicity entry with BT4C cell line (BT4C cells first treated with AdHSV-tk/GCV, TMZ in high concentration) is “started to demonstrate cytotoxicity”. Besides, in the data set with BT4C cell line (BT4C cells, TMZ alone, up to 1000 μM), the “effect of treatment in vitro (cytotoxicity)” value is given as “no effect; also recorded: does not respond to the treatment”.

On to `Nc1nc(O)c2ncn(COC(CO)CO)c2n1` [GCV, Ganciclovir], for which, in data set [1], the WBC counts entry is on record as “did not reduce these values significantly” and the platelet counts result is on record as “did not reduce these values significantly”.
